Source: PMC9777575, “Exploring the Promotive Effects and Mechanisms of Different Polyphenolic Extracts from Prinsepia utilis Royle Seed Shell on Tyrosinase” (Foods, 2022)

How the values were obtained:
mushroom tyrosinase = experiment: Enzyme kinetic analysis (Lineweaver-Burk) of mushroom tyrosinase; format: biochemical; conditions: sample used as substrate
Description: The enzyme kinetics was determined by referring to the previously reported method with appropriate modifications. […] As described in Section 2.5, a blank group, a blank control group and a sample control group were set up. The initial rate of dopachrome formation in the reaction mixture was determined as an increase in absorbance at a wavelength of 475 nm per minute by using a microplate reader. The Michaelis constant (Km) and maximal velocity (Vmax) of tyrosinase activity were determined by Lineweaver-Burk plots using different concentrations of (+)-catechin and (−)-epicatechin as substrates.

[1] = biological target: Tyrosinase (from mushroom, EC1.14.18.1); experiment: Mushroom tyrosinase activity assay (L-DOPA substrate, absorbance at 475 nm); format: biochemical; conditions: effective concentration to promote relative enzyme activity at 150%, 37 °C, 30 min, read-out: EC50 of activation effect on tyrosinase
Description: The tyrosinase activity was determined by referring to the previously reported method with appropriate modifications. […] The reaction was carried out at 37 °C for 30 min and the absorbance values were recorded at 475 nm with a Spectra Max M5 microplate reader (Molecular Device, Sunnyvale, CA, USA). Blank group (system containing PBS, enzyme and L-DOPA solution), blank control group (system containing PBS and L-DOPA solution), and sample control group (system containing PBS, sample solution and L-DOPA solution) were also set up. The relative enzyme activity of each sample group was calculated using the following formula: Relative enzyme activity (%) = [(B1 − B2)/(A1 − A2)] × 100 where A1 = absorbance of the blank group, A2 = absorbance of the blank control group, B1 = absorbance of the sample group and B2 = absorbance of the sample control group. The effective concentration of each sample to promote relative enzyme activity at 150% was calculated as EC50 value.

tyrosinase = biological target: tyrosinase; parameters: method as in PMID 33782442; conditions: read-out: EC50 of activation effect on tyrosinase; cited from earlier work

SMILES	Km (mushroom tyrosinase; DOPA 1 mM) [µM]	Vm of tyrosinase activity (mushroom tyrosinase; DOPA 1 mM)	Km (mushroom tyrosinase; DOPA 1.5 mM) [µM]	Vm of tyrosinase activity (mushroom tyrosinase; DOPA 1.5 mM)	Km (mushroom tyrosinase; DOPA 2 mM) [µM]	Vm of tyrosinase activity (mushroom tyrosinase; DOPA 2 mM)	EC50 [1] [µM]	EC50 (tyrosinase) [µM]
Oc1cc(O)c2c(c1)OC(c1ccc(O)c(O)c1)C(O)C2 (single isomer, unassigned; (+)) [(+)-Catechin]	62	200.00	74.3	175.44	87	158.73	32.5 ± 1.7	–
Oc1cc(O)c2c(c1)O[C@H](c1ccc(O)c(O)c1)[C@H](O)C2 [(−)-Epicatechin]	11.2	85.47	11.7	80.00	18	71.94	36.7 ± 0.43	–
O=C(CCc1ccc(O)c(O)c1)c1c(O)cc(O)c([C@@H]2O[C@H](CO)[C@@H](O)[C@H](O)[C@H]2O)c1O [Aspalathin]	–	–	–	–	–	–	–	265 ± 4.56
